Legend:
CLP-induced sepsis = assay: Cecal ligation and puncture (CLP) sepsis model, xyphoid temperature; assay type: in vivo; conditions: CLP mice; SUL-138 5 mg/kg s.c. 2 hours before and 8 hours after surgery; 24 hr after procedure
Description: Male C57/BL6J mice were housed at room temperature at a light-dark cycle of 12:12 hour. Animals were fed ad libitum using standard animal lab chow and they had free access to drinking water at all times.
(§1) To induce sepsis, the standard cecal ligation and puncture (CLP) model was used. Animals were anesthetized by subcutaneous injection of xylazine/ketamine (100/10 mg/kg), followed by administration of buprenorphine (0.1 mg/kg) as analgesic. After confirmation of anesthesia by lack of response to paw pinch and eye reflex, the abdomen was shaved, cleaned, and de-germed using a povidone-iodine solution before a 1-cm midline incision was made. The cecum was ligated with a 6-0 suture at half the distance between distal pole and the base of the cecum and punctured once with a 21-Gauge needle (‘through-and-through’ from mesenteric toward anti-mesenteric direction) which is an accepted model for ‘mid-grade’ sepsis. A small amount of stool (2-3 mm) was then extruded to ensure wound patency. The cecum was repositioned, thereby taking care not to spill fecal material on the wound edges, followed by closure of the abdomen by running sutures to the abdominal musculature and short interrupted sutures to the skin. Next, 1 ml of saline (warmed, 0.9% NaCl s.c.) was administered to compensate for the expected relative volume depletion due to the onset of sepsis.
Mice recovered at 26-28° C. […]

[1] = tested on: expression of IL-6, TNF-α, IL-1β and ICAM in the kidney; assay: CLP sepsis model, kidney RNA expression by qRT-PCR; assay type: in vivo; conditions: CLP mice; SUL-138 5 mg/kg s.c.; 24 hours
Description: as §1
Mice in the SUL-138 treated groups were injection with SUL-138 (dissolved in saline, 5 mg/kg, s.c.) at 2 hours before and 8 hours after surgery, while mice in the other groups were injected with an equal volume of saline at these time-points.
In order to assess the expression of proinflammatory cytokines and adhesion molecules in the kidney, including IL-6, TNF-α, IL-1β and ICAM, RNA was isolated from approximately 30 mg kidney tissue using Nucleospin RNA (Machery-Nagel, Duren, Germany), quantified using nanodrop spectrophotometer ND-1000 and converted into copy DNA (cDNA), using 0.5 μg RNA in each sample. For RNA isolation from cells, the same kit was used with slight adaptations: TRIzol and chloroform as lysis buffer, instead of the lysis buffer from the kit. Olignucleotide primers were designed using NCBI Primer Blast and Clone Manager (see appendix) and validated by assessing the efficiency, melting temperature and curve using qRT-PCR and size on gel electrophoresis of the naive and enzymatically digested products. qRT-PCR amplification was performed using the following thermal profile: 95° C. for 2 min, followed by 40 cycli of 95° C. for 15 sec, 58° C. for 30 sec and 72° C. 30 sec. All reactions were carried out in triplicate and a standard curve for each primer was used.

[2] = tested on: cytoplasmic oxidative stress in HUVEC; assay: LPS-induced cellular superoxide in HUVEC (DHE); assay type: cell-based, Human; conditions: 10 μM for 30 min, LPS 100 ng/ml 24 hours
Description: (§2) Human Umbilical Cord Endothelial Cells (HUVEC, Lonza CC-2519) were maintained on 1% gelatin-coated culture flasks in RPMI1640 medium containing 20% fetal bovine serum, 2 mM Glutamine (Sigma-Aldrich), 1% Penicillin-Streptomycin solution (Sigma-Aldrich) and 50 μg/ml Bovine Pituitary Extract (Invitrogen). HUVEC were passaged by trypsinization when the cultures reach a confluency of 70%. For all experiments, HUVEC were seeded at 0.6·10^5 cells/cm^2 and allowed to adhere for 24 hours.
The production of cellular and mitochondrial oxidative stress was measured using fluorescent probes for cellular and mitochondrial superoxide, i.e. dihydroethidium (DHE) and MitoSox (ThermoFisher), respectively. HUVEC were incubated with BN-80933, SUL-138 or SUL-150 (all 10 μM) for 30 min. Next, HUVEC were exposed to LPS (100 ng/ml) for an additional 24 hours. In the final hour of incubation, 2.5 μM of DHE or MitoSox was applied to each sample. HUVEC were washed in PBS and fixed in 4% paraformaldehyde at room temperature for 15 min. Nuclear staining was performed by 5 μM […] (DAPI) and fluorescence intensity of the samples was recorded in a CLARIOStar Plus plate reader (BMG Labtech) equipped with the appropriate filter sets. Fluorescence recordings for DHE and MitoSox were corrected for DAPI fluorescence. All experiments were performed in quadruplicate.

IL-1β mRNA expression = assay: Endothelial inflammatory activation after endotoxin, IL-1β mRNA (Example 5); assay type: cell-based, Human; conditions: HUVEC; 10 μM for 30 min
Description: as §2
HUVEC cells were lysed in triZOL reagens (Invitrogen) and total RNA isolated according to manufacturers' instruction. 1 μg total RNA per sample was reverse transcribed using the FirstAid Reverse Transcription Kit (ThermoFisher). Copy-DNA equivalents of 5 ng total RNA were amplified on a ViiA7 Real-time PCR system (ThermoFisher, Waltham, Mass.) using iTaq Universal SYBR Green Supermix (Bio-Rad, Hercules, Calif.) and primers specific for tumor necrosis factor alpha (TNFα; sense 5′-[…]-3′, antisense 5′-[…]-3′), interleukin 1 beta (IL-1β; sense 5′-[…]-3′, antisense 5′-[…]-3′), interleukin-6 (IL-6; sense 5′-[…]-3′, antisense 5′-[…]-3′) and beta actin (ACTB; sense 5′-[…]-3′, antisense 5′-[…]-3′) as loading control. Amplification was performed for 40 cycles of 95° C. for 30 s, 60° C. for 1 min. Relative mRNA expression was calculated according to the δδCt-method.

TNFα mRNA expression = assay: Inhibition of LPS-induced TNFα mRNA expression in HUVEC; assay type: cell-based, Human; conditions: 10 μM for 30 min, then LPS 24 hours
Description: as §2
HUVEC and NRK52E cells were pre-incubated with SUL compounds (10 μM) for 30 min and subsequently exposed to LPS for 24 hours under standard culture conditions. Cells were lysed in triZOL reagens (Invitrogen) and total RNA isolated according to manufacturers' instruction. 1 μg total RNA per sample was reverse transcribed using the FirstAid Reverse Transcription Kit (ThermoFisher). Copy-DNA equivalents of 5 ng total RNA were amplified on a ViiA7 Real-time PCR system (ThermoFisher, Waltham, Mass.) using iTaq Universal SYBR Green Supermix (Bio-Rad, Hercules, Calif.) and primers specific for tumor necrosis factor alpha, interleukin 1 beta, interleukin-6 and beta actin as loading control. Amplification was performed for 40 cycles of 95° C. for 30 s, 60° C. for 1 min. Relative mRNA expression was calculated as 2^−(Cq^gene^−Cq^reference^) and normalized to unstimulated control cells (100% inhibition) and vehicle-treated and LPS exposed cells (0% inhibition). The following primers were used: […]

## Cc1c(C)c2c(c(C)c1O)CC[C@@](C)(C(=O)N1CCN(CCO)CC1)O2 [SUL-138, (S)-(6-hydroxy-2,5,7,8-tetramethylchroman-2-yl)(4-(2-hydroxyethyl)piperazin-1-yl)methanone]
CLP-induced sepsis
  xiphoid temperature: restored after 24 hours
[1]
  ICAM expression in the kidney (RNA): lower than in the untreated CLP animals but the difference was not statistically significant
  IL-1β expression in the kidney (RNA): lower than in the untreated CLP animals but the difference was not statistically significant
  IL-6 expression in the kidney (RNA): fully prevented the rise in IL-6 expression
  TNF-α expression in the kidney (RNA): lower than in the untreated CLP animals but the difference was not statistically significant
[2]
  LPS-induced cytoplasmic oxidative stress (DHE): mitigates the induction of cytoplasmic oxidative stress
IL-1β mRNA expression
  LPS-induced mRNA expression of IL-1β: precluded the LPS-induced increase in IL-1β and IL-6
TNFα mRNA expression
  inhibition of LPS-induced mRNA expression of TNFα: 81.4 ± 4.5 %

— patent publication US20230202997A1, “CHROMANOL, QUINONE OR HYDROQUINONE COMPOUNDS FOR TREATMENT OF SEPSIS” (Sulfateq B.V., priority 2020, published 2023)
